The target of test [1] is Lysine-specific demethylase 5A (Homo sapiens, UniProt P29375). As to the kind of experiment: Enzymatic Assay: The enzymatic assay of Jarid1A activity is based upon Time Resolved-Fluorescence Resonance Energy Transfer (TR-FRET) detection. […] The reaction mixture was incubated at room temperature for 30 minutes, and terminated by the addition of 6 μl of 5 mM EDTA in LANCE detection buffer containing 50 nM Phycolink Streptavidin-allophycocyanin and 2 nM Europium-anti-H3K4me1-2 antibody. In general terms: In TR-FRET formats the signal depends on donor and acceptor labels being close together.
Chain of Lysine-specific demethylase 5A (P29375 whole entry): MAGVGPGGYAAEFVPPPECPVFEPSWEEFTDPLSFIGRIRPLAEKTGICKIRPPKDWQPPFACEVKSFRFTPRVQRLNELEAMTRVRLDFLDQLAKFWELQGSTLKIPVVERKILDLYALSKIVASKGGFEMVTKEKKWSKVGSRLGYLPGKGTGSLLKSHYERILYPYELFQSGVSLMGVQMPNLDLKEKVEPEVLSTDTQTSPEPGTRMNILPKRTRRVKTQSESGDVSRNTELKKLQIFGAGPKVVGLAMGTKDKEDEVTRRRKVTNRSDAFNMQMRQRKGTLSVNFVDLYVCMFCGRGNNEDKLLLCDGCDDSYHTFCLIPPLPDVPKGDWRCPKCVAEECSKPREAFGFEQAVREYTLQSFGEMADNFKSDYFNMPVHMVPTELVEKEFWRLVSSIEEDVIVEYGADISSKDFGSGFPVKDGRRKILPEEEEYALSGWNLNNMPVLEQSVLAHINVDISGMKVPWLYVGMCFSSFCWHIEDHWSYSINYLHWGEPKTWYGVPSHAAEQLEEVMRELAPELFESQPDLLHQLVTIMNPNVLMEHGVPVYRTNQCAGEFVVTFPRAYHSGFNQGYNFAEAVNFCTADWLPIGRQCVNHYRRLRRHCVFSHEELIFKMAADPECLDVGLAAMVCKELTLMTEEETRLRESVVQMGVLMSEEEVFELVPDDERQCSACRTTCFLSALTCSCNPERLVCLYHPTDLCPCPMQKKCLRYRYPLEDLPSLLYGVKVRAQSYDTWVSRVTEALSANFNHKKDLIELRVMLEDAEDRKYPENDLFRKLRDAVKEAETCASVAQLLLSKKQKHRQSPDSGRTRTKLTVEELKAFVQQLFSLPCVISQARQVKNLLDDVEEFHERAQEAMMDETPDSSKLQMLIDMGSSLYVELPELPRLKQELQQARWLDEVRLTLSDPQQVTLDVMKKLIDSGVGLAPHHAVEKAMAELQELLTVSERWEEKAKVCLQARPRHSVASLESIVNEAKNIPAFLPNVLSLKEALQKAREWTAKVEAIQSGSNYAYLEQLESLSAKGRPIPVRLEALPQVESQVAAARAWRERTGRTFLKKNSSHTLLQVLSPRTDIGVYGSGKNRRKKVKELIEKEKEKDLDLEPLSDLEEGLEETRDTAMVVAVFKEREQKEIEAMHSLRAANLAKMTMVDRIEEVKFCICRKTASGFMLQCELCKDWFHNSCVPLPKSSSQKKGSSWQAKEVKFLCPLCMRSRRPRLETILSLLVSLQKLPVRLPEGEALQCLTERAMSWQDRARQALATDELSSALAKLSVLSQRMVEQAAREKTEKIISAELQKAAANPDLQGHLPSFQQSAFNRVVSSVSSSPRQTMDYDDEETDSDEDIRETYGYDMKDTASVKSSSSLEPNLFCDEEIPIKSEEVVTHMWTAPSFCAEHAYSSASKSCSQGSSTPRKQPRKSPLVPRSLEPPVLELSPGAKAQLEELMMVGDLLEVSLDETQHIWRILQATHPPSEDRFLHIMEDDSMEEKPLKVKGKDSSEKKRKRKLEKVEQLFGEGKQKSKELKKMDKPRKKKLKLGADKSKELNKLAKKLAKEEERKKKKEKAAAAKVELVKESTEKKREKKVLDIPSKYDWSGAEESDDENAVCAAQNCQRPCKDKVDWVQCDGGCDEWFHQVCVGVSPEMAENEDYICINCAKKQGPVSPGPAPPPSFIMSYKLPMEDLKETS

For test [2], the target named is Lysine-specific demethylase 5B (Homo sapiens, UniProt Q9UGL1). As to the kind of experiment: The reaction mixture was incubated at room temperature for 30 minutes, and terminated by the addition of 6 μl of 5 mM EDTA in LANCE detection buffer containing 50 nM Phycolink Streptavidin-allophycocyanin and 2 nM Europium-anti-H3K4me1-2 antibody.
Chain of Lysine-specific demethylase 5B (Q9UGL1 whole entry): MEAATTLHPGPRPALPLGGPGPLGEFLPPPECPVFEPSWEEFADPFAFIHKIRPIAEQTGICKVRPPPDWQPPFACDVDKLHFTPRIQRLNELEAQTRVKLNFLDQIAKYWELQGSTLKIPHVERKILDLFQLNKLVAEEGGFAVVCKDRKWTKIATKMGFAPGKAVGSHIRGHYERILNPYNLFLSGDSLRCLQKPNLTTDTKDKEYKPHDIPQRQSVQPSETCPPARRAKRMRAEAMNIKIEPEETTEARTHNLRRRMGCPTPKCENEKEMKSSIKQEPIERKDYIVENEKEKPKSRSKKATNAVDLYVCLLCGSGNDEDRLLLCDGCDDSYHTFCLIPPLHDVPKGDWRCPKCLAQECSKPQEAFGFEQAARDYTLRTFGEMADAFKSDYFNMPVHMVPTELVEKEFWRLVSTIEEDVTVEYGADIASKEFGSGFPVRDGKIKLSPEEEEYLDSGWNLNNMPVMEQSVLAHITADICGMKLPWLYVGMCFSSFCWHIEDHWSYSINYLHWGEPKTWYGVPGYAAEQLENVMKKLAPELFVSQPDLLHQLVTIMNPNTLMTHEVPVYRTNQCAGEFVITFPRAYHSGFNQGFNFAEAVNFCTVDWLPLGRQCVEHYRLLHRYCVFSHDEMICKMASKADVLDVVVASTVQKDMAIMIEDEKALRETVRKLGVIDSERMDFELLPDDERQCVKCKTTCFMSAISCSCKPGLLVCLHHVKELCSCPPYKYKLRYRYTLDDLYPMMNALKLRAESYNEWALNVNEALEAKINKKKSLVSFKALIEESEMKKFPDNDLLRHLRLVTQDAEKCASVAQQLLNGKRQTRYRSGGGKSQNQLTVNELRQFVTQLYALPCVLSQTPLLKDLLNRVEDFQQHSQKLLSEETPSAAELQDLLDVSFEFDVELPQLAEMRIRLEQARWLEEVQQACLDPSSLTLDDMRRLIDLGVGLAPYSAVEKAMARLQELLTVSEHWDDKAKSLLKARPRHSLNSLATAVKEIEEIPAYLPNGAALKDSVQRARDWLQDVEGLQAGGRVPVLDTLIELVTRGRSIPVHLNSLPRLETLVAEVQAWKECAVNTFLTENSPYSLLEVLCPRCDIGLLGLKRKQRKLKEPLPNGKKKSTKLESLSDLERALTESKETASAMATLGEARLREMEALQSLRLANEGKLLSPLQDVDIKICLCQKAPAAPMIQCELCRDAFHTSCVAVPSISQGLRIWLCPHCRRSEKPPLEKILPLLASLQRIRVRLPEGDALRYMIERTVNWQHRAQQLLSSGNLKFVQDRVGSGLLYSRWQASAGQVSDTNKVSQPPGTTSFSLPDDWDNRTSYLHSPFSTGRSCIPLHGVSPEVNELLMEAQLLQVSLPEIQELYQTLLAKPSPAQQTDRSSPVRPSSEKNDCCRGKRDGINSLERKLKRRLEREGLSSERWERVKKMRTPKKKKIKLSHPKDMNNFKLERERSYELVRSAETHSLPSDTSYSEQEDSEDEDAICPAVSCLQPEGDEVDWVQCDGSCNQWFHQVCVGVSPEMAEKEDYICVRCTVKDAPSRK

Molecules are shown by their SMILES.

Usually IC50 stands for the concentration needed to halve the response being measured. With `CCCn1nc(Nc2cnccc2C(=O)O)c2cccc(C)c21`, the half-maximal inhibitory concentration (IC50) in test [1] and in test [2] was less than 100 nM each time.

For the origin of these results see ChEMBL document CHEMBL5726107, “Histone demethylase inhibitors” (2017).
